# Results from patent US20240051921A1, “CRYSTALLINE FORM OF A PHENOLIC TRPV1 AGONIST PRODRUG” (Concentric Analgesics, Inc., priority 2020, published 2024).
# Experiment: Dynamic vapor sorption (DVS) test, form stability as a function of relative humidity
# Type: physicochemical
# Settings: 25° C.
# Experimental: DVS test was performed using an SMS (Surface Measurement Systems) DVS Intrinsic instrument. The relative humidity at 25° C. were calibrated against deliquescence point of LiCl, Mg(NO3)2 and KCl. The following instrument parameters were used:
# DVS test was performed on crystalline Compound 1, Form 1, to investigate its form stability as a function of relative humidity. The DVS test was first conducted at 25° C. with humidity cycled between 0% RH-95% RH-0% RH.
smiles,measurement,setting,value
"CNCC1CCCCN1C(=O)Oc1ccc(CNC(=O)CCCC/C=C/C(C)C)cc1OC.Cl (stereo not drawn) [Compound 1, Form 1, (E)-2-methoxy-4-((8-methylnon-6-enamido)methyl)phenyl 2-((methylamino)methyl)piperidine-1-carboxylate hydrochloride]",crystal form change before and after DVS test (XRPD),"0% RH-95% RH-0% RH, checked by XRPD",no form change occurred
same,moisture content (DVS),"at 95% RH, cycle 0% RH-95% RH-0% RH",16.5 % wt
same,"moisture content, relative stable platform (DVS)",between 20% RH and 70% RH,~3.5 % wt
